Experimental data published in PMC5006061 (Biochimie, 2016).

Key:
GLUT1 [1] = molecular target: T1, GLUT1 (Homo sapiens, UniProt P11166); experiment: Reduction of specific 3H-cytochalasin B binding in HCLE cells; assay type: cell-based
T1 sequence (P11166 1-492): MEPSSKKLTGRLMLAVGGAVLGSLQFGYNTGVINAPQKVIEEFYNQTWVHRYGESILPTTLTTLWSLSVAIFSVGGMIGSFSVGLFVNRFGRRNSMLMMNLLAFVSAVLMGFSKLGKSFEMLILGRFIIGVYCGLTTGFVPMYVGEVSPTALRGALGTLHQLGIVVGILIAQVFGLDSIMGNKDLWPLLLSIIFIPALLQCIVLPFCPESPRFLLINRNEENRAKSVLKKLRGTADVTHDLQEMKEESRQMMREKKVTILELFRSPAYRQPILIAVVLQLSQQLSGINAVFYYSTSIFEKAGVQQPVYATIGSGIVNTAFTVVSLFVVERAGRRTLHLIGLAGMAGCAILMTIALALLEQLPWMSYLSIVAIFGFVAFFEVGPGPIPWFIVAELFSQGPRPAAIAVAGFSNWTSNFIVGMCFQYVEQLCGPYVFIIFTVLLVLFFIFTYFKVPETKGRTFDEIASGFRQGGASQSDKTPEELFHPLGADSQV

GLUT1 [2] = molecular target: T2, GLUT1 (Mus musculus, UniProt P17809); experiment: Inhibition of 3H-2-deoxyglucose uptake in L929 cells; assay type: cell-based
T2 sequence (P17809 1-492): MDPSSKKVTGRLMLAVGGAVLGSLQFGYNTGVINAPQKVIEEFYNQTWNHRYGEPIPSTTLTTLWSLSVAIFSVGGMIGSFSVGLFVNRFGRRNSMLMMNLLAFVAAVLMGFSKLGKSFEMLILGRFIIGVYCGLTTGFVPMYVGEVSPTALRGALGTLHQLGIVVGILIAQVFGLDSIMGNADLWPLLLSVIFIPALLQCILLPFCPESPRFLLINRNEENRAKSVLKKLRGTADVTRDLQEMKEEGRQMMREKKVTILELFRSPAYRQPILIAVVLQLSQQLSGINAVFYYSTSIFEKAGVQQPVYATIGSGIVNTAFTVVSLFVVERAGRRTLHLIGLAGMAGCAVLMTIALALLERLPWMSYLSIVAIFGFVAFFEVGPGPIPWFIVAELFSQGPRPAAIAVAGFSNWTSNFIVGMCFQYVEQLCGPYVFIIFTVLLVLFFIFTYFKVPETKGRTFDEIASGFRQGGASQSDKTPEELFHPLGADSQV

Reduction of specific 3H-cytochalasin B binding in HCLE cells; 2DG uptake inhibi (GLUT1 [1]): 80% reduction at 75 | IC50 (GLUT1 [2]): 19 µM
SMILES: COc1cc(/C=C/C(=O)CC(=O)/C=C/c2ccc(O)c(OC)c2)ccc1O [Cur, Curcumin]
